Test results: patent US20080089860A1, “Therapeutic compositions and methods useful in treating cancer” (priority 2006, published 2008)

Assays:
WM9 cells = test: WM9 melanoma cell growth, MTT assay; type: cell-based, human; settings: for effect on IFN-induced growth inhibition of WM9 cells: pentamidine 0.625-1.25 μg/ml, ketoconazole 40 μg/ml, sodium stibogluconate 12.5-50 μg/ml
Procedure: For cell proliferation assays, cells were grown in 10% FCS culture medium containing various amounts of IFNs and/or sodium stibogluconate in 96 well plates and cultured at 37° C. for 3 or 6 days as indicated. The numbers of viable cells in proliferation assays were determined by MTT assays as described in Phatak et al., J. Immunol. 167, 3391 (2001).
Dose response curves were generated for each drug alone, and also the combinations. Median effect plots were generated for IFNs alone, sodium stibogluconate alone, and the combination. The combination index (CI) was determined and plotted vs. fraction affected (FA). Data were analyzed in both modes, mutually exclusive and mutually nonexclusive. The interaction between two mutually nonexclusive drugs is described by the Equation CI=D1/Dx1+D2/Dx2+D1D2/Dx1Dx2, where Dx1 and Dx2 are the doses of drug 1 and drug 2 that are required to inhibit growth x %. […] When CI<1, drugs are synergistic, when CI=1, drugs are additive, and when CI>1, drugs are antagonistic.
Renca (Murphy, G. P., and W. J. Hrushesky. 1973. A murine renal cell carcinoma. J Natl Cancer Inst 50:1013), Jurkat (Gillis, S., and J. Watson. 1980. Biochemical and biological characterization of lymphocyte regulatory molecules. V. Identification of an interleukin 2-producing human leukemia T cell line. J Exp Med 152:1709) and WM9 (Forsberg, K., 1. Valyi-Nagy, C. H. Heldin, M. Herlyn, and B. Westermark. 1993. Platelet-derived growth factor (PDGF) in oncogenesis: development of a vascular connective tissue stroma in xenotransplanted human melanoma producing PDGF-BB. Proc Natl Acad Sci USA 90:393) cell lines were obtained from a colleague at the Cleveland Clinic Foundation (CCF) and cultured in RPMI 1640 medium supplemented with 10% fetal calf serum (FCS). […] SSG has been described previously (Yi, T., M. K. Pathak, D. J. Lindner, M. E. Ketterer, C. Farver, and E. C. Borden. 2002. Anticancer activity of sodium stibogluconate in synergy with IFNs. J Immunol 169:5978).

MKP1 = molecular target: T1, MKP1 (Homo sapiens, UniProt P28562); test: In vitro PTPase assay, GST/MKP1; type: biochemical; settings: for inhibition of MKP1: section VII comparison
T1 construct: made in house; host or cells: E. coli DH5a
T1 sequence (P28562 13-367 limits assumed): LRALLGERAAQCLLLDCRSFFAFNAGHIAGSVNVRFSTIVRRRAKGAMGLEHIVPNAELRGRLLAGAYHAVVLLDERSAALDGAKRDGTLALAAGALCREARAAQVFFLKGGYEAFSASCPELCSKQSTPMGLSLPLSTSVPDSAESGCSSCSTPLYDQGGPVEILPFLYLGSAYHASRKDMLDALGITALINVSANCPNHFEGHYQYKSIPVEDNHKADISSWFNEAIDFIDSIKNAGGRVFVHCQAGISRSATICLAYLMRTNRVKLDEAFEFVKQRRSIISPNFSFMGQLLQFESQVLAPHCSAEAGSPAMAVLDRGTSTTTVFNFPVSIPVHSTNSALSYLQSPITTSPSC
Procedure: In vitro PTPase activities were measured using the commercial protein tyrosine phosphatase assay kit (Upstate Biotechnology, Inc. (“UBI”)) following established procedure known to one of skill in the art. This assay measures the in vitro dephosphorylation of a synthetic phosphotyrosine peptide of the sequence Arg-Arg-Leu-Ile-Glu-Asp-Ala-Gle-T- -yr-Ala-Ala-Arg-Gly, wherein the tyrosine is phosphorylated (SEQ ID NO: 3). Briefly, 0.01 µg of GST/PTPase fusion proteins was incubated in 50 µl of Tris buffer (10 mM Tris, pH 7.4) containing different concentrations of inhibitors or chemicals (0-1,000 µg/ml) at 22° C. for 10 minutes, followed by addition of 0.2 mM of the phosphotyrosine peptide and incubation at 22° C. for 18 hours. 100 µl of Malachite Green solution was added and incubated for 5 minutes, and the absorbance at 660 nm was measured after 5 minutes.
(§1) In vitro PTPase assays were used to determine the effects of levamisole (Sigma), pentamidine (American Pharmaceutical Partners, Inc.), and ketoconazole (Sigma) on recombinant PTPases, following established procedures (Pathak et al., J. Imumol. 167, 3391 (2001); Pathak et al., Leukemia 16, 2285 (2002), Yi et al., J. Immunol. 169, 5978 (2002)) using a synthetic phosphotyrosine peptide or DiFMUP as the substrate as detailed above in section I.A.2.

GSTm8 = test: In vitro PTPase assay, GSTm8; type: biochemical; settings: 3-4 μg/ml or 10-100 μg/ml
Source text: as §1

inhibition of MKP1 (MKP1) | inhibitory activity against GSTm8 (GSTm8) | SMILES | growth of WM9 melanoma cells (WM9 cells; SSG 6.25-200 μg/ml, 6 days) | effect on IFN-induced growth inhibition of WM9 cells (WM9 cells) | WM9 cells in day 6 culture (WM9 cells; single agent, 50 μg/ml and 100 μg/ml) | inhibitory activity against MKP1 (MKP1) | activity against WM9 cells (WM9 cells; 0.625-20 μg/ml, single agent or with IFN-alpha) | inhibition at 40 µg/mL (WM9 cells; Homo sapiens, WM9, 40 μg/ml, single agent) | growth inhibition of WM9 cells (WM9 cells; pentamidine 2.5-5 μg/ml, single agent, 6 days)
substantial inhibition | no obvious inhibitory activity | CC(=O)N1CCN(c2ccc(OCC3COC(Cn4ccnc4)(c4ccc(Cl)cc4Cl)O3)cc2)CC1 (centres unmarked) [ketoconazole] | – | minor augmenting effect | – | – | no apparent activity | 67% | –
substantial inhibition | no obvious inhibitory activity | N=C(N)c1ccc(OCCCCCOc2ccc(C(=N)N)cc2)cc1 [pentamidine] | – | augmented IFN-alpha-induced growth inhibition | – | – | – | – | 86-97%

SMILES | inhibition of MKP1 (MKP1) | inhibitory activity against GSTm8 (GSTm8) | growth of WM9 melanoma cells (WM9 cells; SSG 6.25-200 μg/ml, 6 days) | effect on IFN-induced growth inhibition of WM9 cells (WM9 cells) | WM9 cells in day 6 culture (WM9 cells; single agent, 50 μg/ml and 100 μg/ml) | inhibitory activity against MKP1 (MKP1) | activity against WM9 cells (WM9 cells; 0.625-20 μg/ml, single agent or with IFN-alpha) | inhibition at 40 µg/mL (WM9 cells; Homo sapiens, WM9, 40 μg/ml, single agent) | growth inhibition of WM9 cells (WM9 cells; pentamidine 2.5-5 μg/ml, single agent, 6 days)
O.O.O.O.O.O.O.O.O.O=C([O-])[C@@H]1[O][Sb]2([O-])([O][Sb]34([OH])[O][C@H]([C@H](O)CO)[C@H]([O]3)[C@H](C(=O)[O-])[O]4)[O][C@H]([C@H](O)CO)[C@@H]1[O]2.[Na+].[Na+].[Na+] [sodium stibogluconate] | no obvious effects | – | inhibited by SSG in a dose-dependent manner | greatly enhanced | killed all cells | no obvious inhibitory activity | – | – | –
